Patent US20240287138A1, “CYCLIC PEPTIDES FOR INHIBITING TNF RECEPTOR 1 ACTIVITY” (Merck Sharp & Dohme LLC, priority 2023, published 2024)
Numbered stars: 1 amine (or outer) side, 2 acyl side, 3 side chain; on linkers, the order of the positions; unused ones are H or OH. Bridge positions count the residues as written; N and C are the ends. Square brackets hold non-standard residues; d marks the D form. Peptide text beside a SMILES is read from it. Trp(βS-Me,7-OMe) = COc1cccc2c([C@H](C)[C@H](N)C(=O)O)c[nH]c12; Trp(1-CH2COOH) = N[C@@H](Cc1cn(CC(=O)O)c2ccccc12)C(=O)O; Trp(βS-Me) = C[C@@H](c1c[nH]c2ccccc12)[C@H](N)C(=O)O; Phe(4-SO3H) = N[C@@H](Cc1ccc(S(=O)(=O)O)cc1)C(=O)O; Trp(7-CN) = N#Cc1cccc2c(C[C@H](N)C(=O)O)c[nH]c12; Trp(7-Cl) = N[C@@H](Cc1c[nH]c2c(Cl)cccc12)C(=O)O; Ala(piperazin-1-yl) = N[C@@H](CN1CCNCC1)C(=O)O; Phe(4-CONH2) = NC(=O)c1ccc(C[C@H](N)C(=O)O)cc1; Phe(4-COOH) = N[C@@H](Cc1ccc(C(=O)O)cc1)C(=O)O; Trp(7-aza) = N[C@@H](Cc1c[nH]c2ncccc12)C(=O)O; dPro(4S-NH2) = N[C@@H]1CN[C@@H](C(=O)O)C1; Pip(5R-OH) = O=C(O)[C@@H]1CC[C@@H](O)CN1; αMeW = C[C@](N)(Cc1c[nH]c2ccccc12)C(=O)O; X1 = O=C([C@@H]1CC[C@H](N[*:1])C1)[*:2]; 2Nal = N[C@@H](Cc1ccc2ccccc2c1)C(=O)O; X68 = O=C([C@@H]1CSCCN1[*:1])[*:2]; Pip(4-aza) = O=C(O)[C@@H]1CNCCN1; 3Pal = N[C@@H](Cc1cccnc1)C(=O)O; 4Pal = N[C@@H](Cc1ccncc1)C(=O)O; NMeE = CN[C@@H](CCC(=O)O)C(=O)O; X7 = CC[C@@H](C(=O)[*:1])[*:2]; Ahp(2) = CCCCC[C@H](N)C(=O)O; αMeS = C[C@](N)(CO)C(=O)O; Nle = CCCC[C@H](N)C(=O)O; Sar = CNCC(=O)O

What follows are molecules tested against T1, human soluble TNFR1 (sTNFR1) (Homo sapiens, UniProt P19438) (assay: Human sTNFR1-peptide displacement assay (LanthaScreen Eu TR-FRET binding assay)).
T1 construct: made in house; host or cells: Sf21 (baculovirus)
T1 sequence (P19438 with tags, fused parts or gaps): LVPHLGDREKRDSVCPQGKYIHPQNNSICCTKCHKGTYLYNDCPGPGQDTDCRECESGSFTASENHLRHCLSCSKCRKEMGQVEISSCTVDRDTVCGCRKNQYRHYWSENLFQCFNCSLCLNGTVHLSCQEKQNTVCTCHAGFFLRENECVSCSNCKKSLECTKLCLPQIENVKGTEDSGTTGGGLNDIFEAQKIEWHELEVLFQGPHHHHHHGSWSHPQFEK
Experimental: A. Procedure for Human sTNFR1-Peptide Displacement Assay
The affinity was determined using LanthaScreen Eu-based time-resolved fluorescence resonance energy transfer (TR-FRET)-based binding assay.
A TR-FRET assay measuring the displacement of biotinylated peptide SEQ ID NO. 1 from human soluble TNFR1 (sTNFR1) in a pre-formed complex by a macrocyclic peptide yields the affinity (Kd^app) of the cyclic peptide for sTNFR1. The reagents for the assay include: the C′-terminally 6His-tagged sTNFR1 (residues 1-211) protein purified from a Sf21 baculovirus expression system, the biotin-tagged B0372 peptide described in section “Preparation of Final Compounds”, part E, the LanthaScreen™ anti-His Tag Europium donor (Life Technologies Corporation (San Diego, CA), cat. #PV5597), and a streptavidin-conjugate Alexa Fluor™ 647 acceptor (Invitrogen (Waltham, MA), cat. #S32357). Time-resolved TR-FRET is achieved when sTNFR1 is bound to biotinylated peptide SEQ ID NO. 1 through coupling of the donor and acceptor FRET pair.
100 nM biotinylated peptide SEQ ID NO. […] 100 nM biotinylated peptide SEQ ID NO. 1 was chosen as it reflects the ˜Kd for this complex. After 30 min at ambient temperature, each test peptide (2 mM stock in DMSO) is titrated in a 20 point, ˜3-fold discrete dose-response using an acoustic-dispense liquid handler. Specifically, 80 nL of peptide/DMSO is transferred into a ProxiPlate-384 Plus 384-well assay plate (PerkinElmer, cat. #6008289). To this plate, 8 μL of the previously formed sTNFR 1-biotinylated peptide SEQ ID NO. 1 complex is added and allowed to reach binding equilibrium with the test peptide at ambient temperature for 90 min.
The TR-FRET signal is measured with the following EnVision® settings: excitation laser at 337 nm; emission1=615 nm, emission2=665 nm, LANCE/DELFIA dichroic mirror, delay time=[…]. The signal of each well is determined as the ratio of the emission at 665 nm to that at 615 nm. Percent displacement is determined by normalization to control wells containing DMSO (0%) or a saturating concentration of a displaceable peptide (100%). The %-effect as a function of peptide concentration is fit to a five-parameter logistic fit based on the Morrison equation to account for tight binding kinetics.

**Q.** With `CCCCC[C@@H]1NC(=O)CSC[C@@H](C(N)=O)NC(=O)[C@](C)(Cc2c[nH]c3ccccc23)NC(=O)CN(C)C(=O)[C@H](Cc2cccnc2)NC(=O)[C@H](Cc2ccc(C(=O)O)cc2)NC(=O)[C@](C)(CO)NC(=O)[C@H](Cc2c[nH]c3c(Cl)cccc23)NC(=O)[C@H](Cc2ccncc2)NC(=O)[C@H](CC(N)=O)NC(=O)[C@H]2CCCN2C(=O)[C@H]([C@@H](C)c2c[nH]c3ccccc23)NC(=O)[C@H](CN2CCNCC2)NC(=O)[C@H](Cc2ccc(O)cc2)NC1=O` [SEQ ID NO. 226] ({CH2CO}-[Ahp(2)]Y[Ala(piperazin-1-yl)][Trp(βS-Me)][dP]N[4Pal][Trp(7-Cl)][αMeS][Phe(4-COOH)][3Pal][Sar][αMeW]C-NH2; thioether N-14) as the molecule, how does the IC50 read?
**A.** 1.16 nM

**Q.** Which IC50 does the source give for `CCCCC[C@@H]1NC(=O)CSC[C@@H](C(N)=O)NC(=O)[C@](C)(Cc2c[nH]c3ccccc23)NC(=O)CN(C)C(=O)[C@H](Cc2c[nH]cn2)NC(=O)[C@H](Cc2ccc(C(=O)O)cc2)NC(=O)[C@](C)(CO)NC(=O)[C@H](Cc2ccc3ccccc3c2)NC(=O)[C@H](Cc2ccc(C(=O)O)cc2)NC(=O)[C@H](CC(N)=O)NC(=O)[C@H]2CCCN2C(=O)[C@H]([C@@H](C)c2c[nH]c3ccccc23)NC(=O)[C@H](CO)NC(=O)[C@H](Cc2ccncc2)NC1=O` [SEQ ID NO. 237] ({CH2CO}-[Ahp(2)][4Pal]S[Trp(βS-Me)][dP]N[Phe(4-COOH)][2Nal][αMeS][Phe(4-COOH)]H[Sar][αMeW]C-NH2; thioether N-14) here?
**A.** 13 nM

**Q.** For `CCCCC[C@@H]1NC(=O)[C@@H]2CC[C@@H](C2)NC(=O)[C@H]([C@@H](C)c2c[nH]c3c(OC)cccc23)NC(=O)CN(C)C(=O)[C@H](Cc2cn(CC(=O)O)c3ccccc23)NC(=O)[C@H](Cc2ccc(C(N)=O)cc2)NC(=O)[C@](C)(CO)NC(=O)[C@H](Cc2c[nH]c3c(C#N)cccc23)NC(=O)[C@H](Cc2ccc(C(=O)O)cc2)NC(=O)[C@H](CC(N)=O)NC(=O)[C@H]2C[C@H](N)CN2C(=O)[C@H](Cc2c[nH]c3ccccc23)NC(=O)[C@@H]2CC[C@@H](O)CN2C(=O)[C@H](Cc2ccncc2)NC1=O` [SEQ ID NO. 150] (cyclo([4Pal][Pip(5R-OH)]W[dPro(4S-NH2)]N[Phe(4-COOH)][Trp(7-CN)][αMeS][Phe(4-CONH2)][Trp(1-CH2COOH)][Sar][Trp(βS-Me,7-OMe)][X1][Ahp(2)])), which Kd is on record?
**A.** 0.23 nM

**Q.** Which IC50 does the source give for `CCCC[C@@H]1NC(=O)[C@H](CC)SC[C@@H](C(N)=O)NC(=O)[C@H]([C@@H](C)c2c[nH]c3c(OC)cccc23)NC(=O)CN(C)C(=O)[C@H](Cc2ccc(O)cc2)NC(=O)[C@H](Cc2ccc(C(N)=O)cc2)NC(=O)[C@](C)(CO)NC(=O)[C@H](Cc2c[nH]c3c(Cl)cccc23)NC(=O)[C@H](Cc2ccncc2)NC(=O)[C@H](CC(N)=O)NC(=O)[C@H](CCC(=O)O)N(C)C(=O)[C@H](Cc2c[nH]c3ccccc23)NC(=O)[C@@H]2CSCCN2C(=O)[C@H](Cc2ccncc2)NC1=O` [SEQ ID NO. 246] ([Nle][4Pal][X68]W[NMeE]N[4Pal][Trp(7-Cl)][αMeS][Phe(4-CONH2)]Y[Sar][Trp(βS-Me,7-OMe)]C-NH2; linker N-14 via X7) here?
**A.** 1.15 nM

**Q.** What does the source list for `CCCC[C@@H]1NC(=O)CSC[C@@H](C(=O)NCC(=O)N[C@@H](CCC(=O)O)C(=O)N[C@@H](CCC(=O)O)C(N)=O)NC(=O)[C@H]([C@@H](C)c2c[nH]c3c(OC)cccc23)NC(=O)CN(C)C(=O)[C@H](Cc2ccc(O)cc2)NC(=O)[C@H](Cc2ccc(C(=O)O)cc2)NC(=O)[C@](C)(CO)NC(=O)[C@H](Cc2c[nH]c3c(Cl)cccc23)NC(=O)[C@H](Cc2ccncc2)NC(=O)[C@H](CC(N)=O)NC(=O)[C@H](CCC(=O)O)N(C)C(=O)[C@H](Cc2c[nH]c3ncccc23)NC(=O)[C@@H]2CNCCN2C(=O)[C@H](Cc2ccncc2)NC1=O` [SEQ ID NO. 255] ({CH2CO}-[Nle][4Pal][Pip(4-aza)][Trp(7-aza)][NMeE]N[4Pal][Trp(7-Cl)][αMeS][Phe(4-COOH)]Y[Sar][Trp(βS-Me,7-OMe)]CGEE-NH2; thioether N-14)?
**A.** IC50: 0.7 nM; Kd: 1.01 nM

**Q.** Which Kd does the source give for `CCCC[C@@H]1NC(=O)[C@@H]2CC[C@@H](C2)NC(=O)[C@H]([C@@H](C)c2c[nH]c3c(OC)cccc23)NC(=O)CN(C)C(=O)[C@H](Cc2ccc(O)cc2)NC(=O)[C@H](Cc2ccc(C(=O)O)cc2)NC(=O)[C@](C)(CO)NC(=O)[C@H](Cc2c[nH]c3c(Cl)cccc23)NC(=O)[C@H](Cc2ccc(S(=O)(=O)O)cc2)NC(=O)[C@H](CC(N)=O)NC(=O)[C@H](CCC(=O)O)N(C)C(=O)[C@H](Cc2c[nH]c3ccccc23)NC(=O)[C@@H]2CNCCN2C(=O)[C@H](Cc2ccncc2)NC1=O` [SEQ ID NO. 173] (cyclo([4Pal][Pip(4-aza)]W[NMeE]N[Phe(4-SO3H)][Trp(7-Cl)][αMeS][Phe(4-COOH)]Y[Sar][Trp(βS-Me,7-OMe)][X1][Nle])) here?
**A.** 0.26 nM
